Reference: patent US20060167242A1, “Cephalosporin in crystalline form” (priority 2004, published 2006)

Test: Determination of storage stability of crystalline material (HPLC analysis after storage)
Format: physicochemical
Experimental: Determination of Storage Stability of Crystalline Material of Formula I
A crystalline and an amorphous sample of (6R,7R)-7-[(Z)-2-(5-Amino-[1,2,4]thiadiazol-3yl)-2-hydroxyimino-acetylamino1-8-oxo-3-[(E)-(R)-1′-(5-methyl-2-oxo-1,3]dioxol-4-ylmethoxycarbonyl)-2-oxo-[1,3′]bipyrrolidinyl-3-ylidenemethyl]-8-oxo-5-thia-1-aza-bicyclo[4.2.0]oct-2-ene-2-carboxylic acid were stored at different temperatures for 24 hours, 28 days and for 3 months.

[1] = 3 months, 5° C. (as compared to −20° C.)
[2] = storage for 3 months, Temperature 5, Rel. Humidity Ca. 58%
[3] = storage for 3 months, Temperature 25, Rel. Humidity Ca. 58%
[4] = storage for 3 months, −20° C., Rel. Humidity Not defined
[5] = storage for 24 hours, Temperature 5, Rel. Humidity Ca. 58%
[6] = storage for 24 hours, Temperature 25, Rel. Humidity Ca. 58%
[7] = storage for 24 hours, Temperature 40, Rel. Humidity Ca. 75%
[8] = storage for 24 hours, Temperature 60, Rel. Humidity Ca. 75%
[9] = storage for 24 hours, −20° C., Rel. Humidity Not defined
[10] = storage for 28 days, Temperature 5, Rel. Humidity Ca. 58%
[11] = storage for 28 days, Temperature 25, Rel. Humidity Ca. 58%
[12] = storage for 28 days, −20° C., Rel. Humidity Not defined

Row | Structure (SMILES) | decomposition on storage (in words) [1] | decomposition on storage (in words) (3 months, 25° C.) | decomposition on storage (in words) (28 days, 5° C.) | Area-% (HPLC) [2] [Area-%] | Area-% (HPLC) [3] [Area-%] | Area-% (HPLC) [4] [Area-%] | Area-% (HPLC) [5] [Area-%] | Area-% (HPLC) [6] [Area-%] | Area-% (HPLC) [7] [Area-%] | Area-% (HPLC) [8] [Area-%] | decomposition on storage (in words) (storage for 24 hours, temperatures above 5° C.) | Area-% (HPLC) [9] [Area-%] | Area-% (HPLC) [10] [Area-%] | Area-% (HPLC) [11] [Area-%] | Area-% (HPLC) [12] [Area-%] | decomposition on storage (in words) (28 days, 25° C.) | stability on storage (in words) (storage for 24 hours, whole temperature range of investigation)
1 | Cc1oc(=O)oc1COC(=O)N1CC[C@@H](N2CC/C(=C\C3=C(C(=O)O)N4C(=O)[C@@H](NC(=O)/C(=N\O)c5nsc(N)n5)[C@H]4SC3)C2=O)C1 [amorphous compound I, (6R,7R)-7-[(Z)-2-(5-Amino-[1,2,4]thiadiazol-3yl)-2-hydroxyimino-acetylamino1-8-oxo-3-[(E)-(R)-1′-(5-methyl-2-oxo-1,3]dioxol-4-ylmethoxycarbonyl)-2-oxo-[1,3′]bipyrrolidinyl-3-ylidenemethyl]-8-oxo-5-thia-1-aza-bicyclo[4.2.0]oct-2-ene-2-carboxylic acid] | slight decomposition | strongly decreased | decreased | 96.9 | 91.4 | 97.6 | 99.05 | 98.85 | 98.25 | 96.67 | decomposed significantly | 99.04 | 98.1 | 96.4 | 98.6 |  | 
2 | Cc1oc(=O)oc1COC(=O)N1CC[C@@H](N2CC/C(=C\C3=C(C(=O)O)N4C(=O)[C@@H](NC(=O)/C(=N\O)c5nsc(N)n5)[C@H]4SC3)C2=O)C1.Cl [crystalline compound II, (6R,7R)-7-[(Z)-2-(5-Amino-[1,2,4]thiadiazol-3-yl) -2-hydroxyimino-acetylamino]-8-oxo-3-[(E)-(R)-1′-(5-methyl-2-oxo-[1,3]dioxol-4-ylmethoxycarbonyl)-2-oxo-[1,3′]bipyrrolidinyl-3-ylidenemethyl]-8-oxo5-thia-1-aza-bicyclo[4.2.0]oct-2-ene-2-carboxylic acid Hydrochloride Trihydrate] | no decomposition | slight decomposition |  | 93.9 | 93.4 | 94 | 95.7 | 95.75 | 95.45 | 95.57 |  | 95.77 | 95.2 | 94.9 | 95.3 | slight decomposition | very good stability
